In patent publication US12180187B2, “1-phenyl-5-azinylpyrazolyl-3-oxyalkyl acids and their use for controlling unwanted plant growth” (BAYER AKTIENGESELLSCHAFT, priority 2019, dated 2024):

Assays:
AMARE [1] = assay: Pre-emergence action against AMARE, 1280 g/ha; type: in vivo, Amaranthus retroflexus; conditions: scored visually after about 3 weeks vs untreated controls (100% = plants have died)
In short: (§1)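 Mono- and dicot weed seeds sown in sandy loam were treated on the covering soil surface with WP or EC formulations plus 0.5% additive at 600 L water/ha. Pots stayed in a greenhouse; damage was scored visually after ~3 weeks as percent versus untreated controls (100% = dead).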

POAAN [2] = assay: Pre-emergence action against POAAN, 1280 g/ha; type: in vivo, Poa annua; conditions: visual scoring after about 3 weeks vs untreated controls, 100% = plants have died, 0% = like control plants
In short: as §1

DIGSA = assay: Pre-emergence action at 320 g/ha against DIGSA; type: in vivo, Digitaria sanguinalis; conditions: visual scoring after about 3 weeks vs untreated controls
In short: (§2)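 Weed and crop seeds sown in pots and covered with soil; WP or EC formulations sprayed pre-emergence onto the soil surface at 320 g/ha with 0.5% additive in 600 l/ha water. Kept in greenhouse; after about 3 weeks activity scored visually as % versus untreated controls (100% = plants dead, 0% = as control).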

SETVI [3] = assay: Pre-emergence action at 320 g/ha against SETVI; type: in vivo, Setaria viridis; conditions: visual scoring after about 3 weeks vs untreated controls
In short: as §2

SETVI [4] = assay: Pre-emergence action against SETVI, 1280 g/ha; type: in vivo, Setaria viridis; conditions: visual scoring after about 3 weeks vs untreated controls, 100% = plants have died, 0% = like control plants
In short: as §1

POLCO = assay: Pre-emergence action at 320 g/ha against POLCO; type: in vivo, Fallopia convolvulus (Polygonum convolvulus); conditions: visual scoring after about 3 weeks vs untreated controls
In short: as §2

ECHCG = assay: Pre-emergence action against ECHCG, 1280 g/ha; type: in vivo, Echinochloa crus-galli; conditions: visual scoring after about 3 weeks vs untreated controls, 100% = plants have died, 0% = like control plants
In short: as §1

MATIN [5] = assay: Pre-emergence action against MATIN, 1280 g/ha; type: in vivo, Tripleurospermum inodorum (Matricaria inodora); conditions: scored visually after about 3 weeks vs untreated controls (100% = plants have died)
In short: as §1

AMARE [6] = assay: Pre-emergence action at 320 g/ha against AMARE; type: in vivo, Amaranthus retroflexus; conditions: visual scoring after about 3 weeks vs untreated controls
In short: as §2

ALOMY = assay: Pre-emergence action at 320 g/ha against ALOMY; type: in vivo, Alopecurus myosuroides; conditions: scored visually after about 3 weeks vs untreated controls (100% = plants have died)
In short: as §2

POAAN [7] = assay: Post-emergence action against POAAN, 1.28 kg/ha; type: in vivo, Poa annua; conditions: dosage 1280 g/ha, visual rating about 3 weeks after treatment vs untreated controls
In short: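 Greenhouse-grown weeds (sandy loam, twin-sown pots) were treated 2–3 weeks post-sowing at one leaf. The spray was an aqueous WP/EC preparation plus 0.5% additive, applied at 600 L/ha. Scoring was visual at ~3 weeks, 0–100% versus untreated controls.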

MATIN [8] = assay: Pre-emergence action at 320 g/ha against MATIN; type: in vivo, Tripleurospermum inodorum (Matricaria inodora); conditions: visual scoring after about 3 weeks vs untreated controls
In short: as §2

STEME = assay: Pre-emergence action against STEME, 1280 g/ha; type: in vivo, Stellaria media; conditions: scored visually after about 3 weeks vs untreated controls (100% = plants have died)
In short: as §1

SMILES | Pre-emergence action against AMARE (AMARE [1]) [%] | Pre-emergence action against POAAN (POAAN [2]) [%] | Pre-emergence action against DIGSA in % (DIGSA) [%] | Pre-emergence action against SETVI in % (SETVI [3]) [%] | Pre-emergence action against SETVI (SETVI [4]) [%] | Pre-emergence action against POLCO in % (POLCO) [%] | Pre-emergence action against ECHCG (ECHCG) [%] | Pre-emergence action against MATIN (MATIN [5]) [%] | Pre-emergence action against AMARE in % (AMARE [6]) [%] | Pre-emergence action at 320 g/ha against ALOMY in % (ALOMY) [%] | Post-emergence action against POAAN (POAAN [7]) [%] | Pre-emergence action against MATIN in % (MATIN [8]) [%] | Pre-emergence action against STEME (STEME) [%]
COC(=O)[C@@H](C)Oc1nn(-c2ccccc2)c(-c2cncnc2)c1Br [VI-013] | 100 | 100 | 100 | 100 | 100 | 90 | 100 | 90 | 90 | 90 | 100 | 90 | 100
COC(=O)C(C)Oc1nn(-c2ccccc2)c(-c2ccc(F)nc2)c1Br (stereo not drawn) [VII-026] | 100 | 100 | 100 | 80 | 100 | 100 | 90 | 90 | 100 | 100 | 100 | 90 | 90
COC(=O)COc1nn(-c2ccc(F)cc2)c(-c2cccnc2)c1Br [VII-028] | 90 | 100 | 90 | 100 | 100 | 90 | 100 | 100 | 90 | 100 | 90 | 80 | 100
CCC(Oc1nn(-c2ccccc2F)c(-c2ccc(F)nc2)c1Br)C(=O)OC (stereo not drawn) [VII-029] | 100 | 100 | 100 | 90 | 100 | 100 | 100 | 100 | 100 | 90 | 100 | 90 | 100
CCOC(=O)COc1nn(-c2ccccc2F)c(-c2ccc(F)nc2)c1I [VII-036] | 100 | 100 | 100 | 100 | 100 | 100 | 100 | 100 | 100 | 100 | 100 | 90 | 100
O=C(O)COc1nn(-c2ccccc2F)c(-c2ccnc(F)c2)c1Br [VIII-004] | 100 | 100 | 100 | 90 | 100 | 90 | 100 | 100 | 100 | 100 | 100 | 90 | 100
